In US20040176316A1, “Compounds for the normalization of the sleep/wake cycle” (priority 2002, published 2004):
“Also recorded” adds a separate entry of the source. Like-named read-outs stand apart in the source and are kept apart here.

Columns and labels:
[1] = cited from earlier work
[2] = cited from earlier work; remark: listed apart in the source
cocaine user = test: Level of activity as a function of time of day in a cocaine user without and with CDP-choline treatment (FIGS. 2A and 2B); type: in vivo
Excerpt: FIGS. 2A and 2B are graphs of level of activity as a function of time of day without (A) and with (B) citicoline treatment. A, B, and C refer to use of alcohol, caffeine, and cocaine, respectively. The numbers indicate a craving for cocaine, based on a 10 point scale. Gray dots indicate ingestion of citicoline.
CDP-choline and related compounds are also useful in the treatment of substance abuse disorders, such as alcohol, cocaine, opiate, opioid, nicotine, or tobacco usage or dependence (U.S. Pat. Nos. 5,958,896 and 6,103,703 and U.S. Provisional Application No. 60/424,972, filed Nov. 8, 2002). Since substance abuse disorders may cause a disruption in the quality of sleep or the sleep/wake cycle, the methods of the invention may be used to normalize the sleep/wake cycle or treat sleep disorders in patients with a substance abuse disorder. In addition, a substance abuse disorder and an abnormal sleep/wake cycle or sleep disorder may be treated simultaneously with the methods described herein. FIGS. 2A and 2B show data on the level of activity of a cocaine user for five days without treatment (FIG. 2A) and for 5 days after treatment with CDP-choline (FIG. 2B, monitoring began 4 days after treatment). […] In addition, the subject's use of cocaine (denoted by C) was eliminated with treatment, and the use of alcohol (denoted by A) was reduced.

human subjects = test: Effects of citicoline on sleep quality and mood, rated by subjects on a 10 point scale (FIG. 1); type: in vivo
Excerpt: FIG. 1 is a graph of the effects of citicoline on sleep quality and mood. […] The quality of sleep is improved, and the sleep/wake cycle is normalized after 2-4 weeks of citicoline treatment. This normalization of the sleep/wake cycle may further promote increased wakefulness or reduce fatigue or tiredness during the day. The administration of citicoline will also likely stabilize the homeostatic processes involved in sleep disorders such as insomnia, sleep apneas (central or obstructive), problem sleepiness, restless leg syndrome, periodic limb movements, and narcolepsy. In addition, citicoline may increase cognitive functioning (Alvarez et al. Methods Find Exp Clin Pharmacol 21:633-44, 1999; Fioravanti et al. Cochrane Database Syst. Rev. 4: CD000269, 2000) and may be used to increase cognitive performance in individuals in a sleep-deprived state, e.g., pilots, physicians, students, or others who may experience long periods without sleep.

[3] = cited from earlier work; remark: listed apart in the source
[4] = after 2-4 weeks of citicoline treatment
[5] = human subjects, measured by the subjects on a 10 point scale, compared to placebo (FIG. 1)

## CN(CC(=O)O)C(=N)N [Creatine, creatine]
[1]; humans
  tolerability: well tolerated at relatively high doses

## CC(=O)OC[C@H]1O[C@@H](n2ccc(=O)[nH]c2=O)[C@H](OC(C)=O)[C@@H]1OC(C)=O [triacetyl uridine]
[1]; in vivo
  tolerability: well tolerated

## C[N+](C)(C)CCOP(=O)(O)OP(=O)([O-])OC[C@H]1O[C@@H](n2ccc(N)nc2=O)[C@H](O)[C@@H]1O [CDP-choline, cytidine 5′-diphosphocholine]
[2]; administered either orally or intravenously
  metabolic conversion after administration: rapidly metabolized to cytidine and choline; also recorded: rapidly converted into the two major circulating metabolites, choline and cytidine
[2]; orally administered
  CDP-choline and/or its metabolites absorbed: more than 99%
  excreted in feces: less than 1%
[2]; share of dose
  excretion via lung: 12.9%
  excretion via urine: 2.4%
  rest of the dose metabolized and retained in tissues: 83.9%
Cocaine user; 5 days of monitoring that began 4 days after treatment, vs five days without treatment
  sleep/wake cycle: normalized to a diurnal pattern
Cocaine user; after treatment
  cravings for cocaine (10 point scale): reduced in intensity
Cocaine user; after treatment vs without treatment
  level of activity during the day: more active during the day
Cocaine user; with treatment
  use of alcohol: reduced
  use of cocaine: eliminated
Human subjects; [4]
  quality of sleep: improved
  sleep/wake cycle: normalized
Human subjects; [5]
  mood: increases
  quality of sleep: increases
[1]; mammals
  tolerability: well tolerated
[3]; ingestion of large amounts in preclinical studies
  toxicity symptoms: common cholinergic symptoms (salivation, lacrimation, urination, defecation, and vomiting)
[3]; reported cases
  overdoses: no reported cases of overdoses

## O=c1ccn([C@@H]2O[C@H](CO)[C@@H](O)[C@H]2O)c(=O)[nH]1 [uridine]
[1]; humans
  tolerability: well tolerated
[1]; mammals
  tolerability: well tolerated
